From PubChem BioAssay (NCI) come the findings set out here.

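The compound was tested at five concentrations on cells cultured in 96-well plates, with a 48-hour exposure period. GI50 marks 50% less growth. TGI: concentration producing complete growth inhibition.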 Bounds are passed on as bounds.

Common to all, as to assay: NCI anticancer screen, dose series, 48 h
Assay [1] deals with 786-0 renal.
Assay [2] relates to ACHN renal.
Assay [3] relates to HS 578T breast.
Assay [4] relates to IGROV1 ovarian.
In assay [5] the test system is KM12 colon.
In assay [6] the test system is M14 melanoma.
Assay [7] has as its system MCF7 breast.
Assay [8] has as its system SF-295 CNS.
Assay [9] concerns SNB-75 CNS.
Assay [10] has as its system SW-620 colon.

On to `Oc1ccc2ccccc2c1/C=N\Nc1ccccn1`, for which the GI50 in assay [1] was 618 nM; in [2], 331 nM; in assay [3] it was 1400 nM; in [4], 273 nM; in assay [5], 1090 nM; in assay [6], 441 nM. Further, the GI50 in [7] was 895 nM; in assay [8] it was 640 nM; in [9], 1030 nM; in assay [10], 588 nM. The TGI in assay [1] was 4.58 µM; in assay [3], above 34.5 µM; in [4], 2.05 µM; in assay [5], above 100 µM; in assay [6], 5.34 µM; in assay [7], above 34 µM. The TGI in [8] was 2 µM; in assay [9], 10.3 µM; in assay [10], above 100 µM.

With `Cc1ccc(/C=C(\C#N)n2nnc3cc(F)c(F)cc32)cc1`, the GI50 was 2500 nM in [1]; 4200 nM in assay [2]; 4170 nM in assay [3]; 3430 nM in assay [4]; 2650 nM in assay [5]; 2070 nM in assay [6]. Further, the GI50 was 2450 nM in assay [7], 4020 nM in assay [8], 2450 nM in [9] and 891 nM in assay [10]. In addition, the TGI was 11.9 µM in assay [1]; 34.7 µM in assay [2]; 44.9 µM in assay [3]; 32.1 µM in assay [4]; 15.4 µM in assay [5]; 14.9 µM in [6]. The TGI is above 100 µM in assay [7], 34.4 µM in [8], 84.5 µM in assay [9] and 11.2 µM in assay [10].

`COC(=O)c1c(-c2ccccc2)csc1NC(=O)c1c(-c2ccccc2)noc1C`: the GI50 was 1340 nM in [1]; 995 nM in assay [2]; above 100000 nM in assay [3]; 3440 nM in assay [4]; 802 nM in [5]; 6860 nM in assay [6]. Further, the GI50 was 600 nM in assay [7], 598 nM in [8], 3590 nM in assay [9] and 705 nM in assay [10]. For the same compound, the TGI in assay [1], in assay [2], in assay [3], in [4], in [5] and in [6] was above 100 µM throughout. For the same compound, the TGI in [7] was above 100 µM; in assay [8], above 21.5 µM; in assay [9] it was above 100 µM; in [10], above 100 µM.

Turning to `Cn1c2ccccc2c2c3c(c4c5ccccc5n(CCCCCC#N)c4c21)C(=O)N(O)C3=O`, the GI50 was 1590 nM in assay [1]; 317 nM in [2]; 3250 nM in assay [3]; 1590 nM in [4]; 1500 nM in assay [5]; 390 nM in [6]. Besides, the GI50 is 299 nM in assay [7], 3030 nM in assay [8], 430 nM in assay [9] and 732 nM in [10]. Moreover, the TGI is 3.81 µM in assay [1]; 1.19 µM in assay [2]; 41.9 µM in assay [3]; 4.61 µM in assay [4]; 5.95 µM in assay [5]; above 100 µM in assay [6]. Further, the TGI in [7] was 27.9 µM; in [8] it was 9.71 µM; in assay [9] it was 6.2 µM; in assay [10] it was above 100 µM.

In the case of `COC(=O)c1ccc2c(c1)nc(-c1ccc(Cl)cc1)n2-c1cc(C(C)(C)C)[nH]n1`, the GI50 was 3620 nM in assay [1]; 3000 nM in assay [2]; 1720 nM in [3]; 3640 nM in assay [4]; 2120 nM in assay [5]; 2900 nM in assay [6]. Further, the GI50 in assay [7] was 2790 nM; in assay [8], 2480 nM; in [9], 2140 nM; in assay [10] it was 3240 nM. Also, the TGI in assay [1] was 32 µM; in [2] it was 9.34 µM; in [3], 7.16 µM; in assay [4], 25 µM; in assay [5], 6.07 µM; in assay [6] it was 8.22 µM. The TGI was 12.3 µM in [7], 8.98 µM in [8], 12.6 µM in [9] and above 100 µM in [10].

As for `COC(=O)c1oc2c(C(=O)/C=C/c3ccc(OC)cc3)c(OCCCN3CCCCC3)ccc2c1C`, the GI50 in [1] was 1490 nM; in assay [2] it was 1030 nM; in [3], 2580 nM; in assay [4] it was 782 nM; in assay [5], 1700 nM; in assay [6], 1610 nM. The GI50 was 1150 nM in [7], 1800 nM in [8], 1890 nM in assay [9] and 1380 nM in assay [10]. Moreover, the TGI came out at 3.11 µM in assay [1]; 2.54 µM in assay [2]; 4.43 µM in assay [4]; 3.66 µM in assay [5]; 3.59 µM in [6]; 2.5 µM in [7]. Also, the values for the TGI in assay [8], in [9] and in assay [10] were 3.93 µM, 6.37 µM and 3.03 µM, respectively.
